This note sets out measurements from PubChem BioAssay AID179 (DTP/NCI, 2004).

Molecules are shown by their SMILES. Calls of active or inactive are those of the source.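 How the source made its calls: active means compounds giving half or more protection of infected cells from virus-caused growth loss, again on retest; inactive means the rest.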 A value given as a limit tells only on which side of the number the result lay.

The assay deals with CEM cells HIV-1 protection, formazan growth assay. Put plainly: NCI AIDS Antiviral Assay. Conditions: for IC50: measured here: growth of uninfected CEM cells. The procedure, abridged: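 Screen of anti-HIV-1 activity in human CEM cells using a formazan-based growth measurement at five drug concentrations. Hits with 50% or greater protection were repeated, and confirmation required reproducible complete protection.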

For orientation: EC50 means the concentration at which the effect is half-maximal. In general, IC50 refers to the concentration that gives 50% inhibition. Read a high IC50 as weaker potency in that assay.

For `C=C(Br)CNC(=O)CCC(=O)NCC(=C)Br`, the EC50 is above 200 µM and the IC50 is above 200 µM.

For `COC(=O)CC[N+]1([O-])CC1`, the EC50 is above 200 µM and the IC50 is above 200 µM. For the compound `Clc1ccc(CSc2ccc3nncc(SCc4ccc(Cl)cc4)c3c2)cc1`, the EC50 is above 60.3 µM and the IC50 is above 60.3 µM. As for `CCc1cccc(CC)c1NC(=O)C(C#N)C1=C(Cl)C(=O)c2ccccc2C1=O` (stereo not drawn), the EC50 was above 17.8 µM and the IC50 is 11.5 µM.

For the compound `CCN(CC)c1cc2oc(=O)cc(C)c2cc1NC(=O)c1cc(N)cc(N)c1`, the EC50 was above 100 µM and the IC50 was determined as 19.5 µM.

Regarding `CC(C)N1C(C)[C@@H](c2ccccc2)O[P@@]1(=O)CC1=CCCCC1` (stereo partly drawn), the outcome was inactive.

Turning to `O=C(O)C(=O)CC(=O)c1ccc(Br)cc1`, the EC50 was above 200 µM.

Turning to `CCOP(=S)(OCC)SC(C)(C)C`, the EC50 is above 107 µM and the IC50 is above 107 µM. As to `Cc1cc(S(=O)(=O)NC2=NCC(C)NN2)c(S)cc1Cl` (stereo not drawn), the EC50 is above 200 µM and the IC50 is 39.8 µM. Taken in the same sequence, the figures for `Cc1oc(-c2cccc(F)c2)nc1C(N)=O` were above 200 µM and above 200 µM. For `O=C1CCSC2=NCCN12`, the outcome was inactive. With `COc1cccc(/C=N/[N-]C(N)=O)c1[O-].[Co+2].[OH3+]`, the EC50 is above 126 µM and the IC50 was 61.7 µM.

As for `O=c1c(O)c(-c2ccccc2)n(O)c2ccc(Cl)cc12`, the EC50 is above 18.2 µM and the IC50 was above 18.2 µM. Consider `COc1ccc(OC)c(/C=C2\CCc3ccccc3C2=O)c1`, for which the EC50 is above 17.8 µM and the IC50 came out at 2.88 µM. On to `CC(=O)NC1C(OCc2ccccc2)OC(CO)C(O)C1OC(C)C(=O)NC(C)C(=O)N[C@@H](CCC(=O)OCCCNC1c2ccccc2Nc2cccc([N+](=O)[O-])c21)C(N)=O` (stereo partly drawn), for which the result was inactive. For `O=C1CCC(C(=O)O)C2=C1CCCC2` (stereo not drawn), the result was inactive. Turning to `CCOC(=O)C(C)(C(=O)OCC)/C(Cl)=C\Cl`, the EC50 is above 200 µM and the IC50 is above 200 µM. Consider `COC1(OC)CC(CO)(CNc2nc(N)nc(Cl)c2C=O)C1`, for which the EC50 was above 162 µM and the IC50 was found to be 14.1 µM. Taken in the same sequence, the figures for `O=c1cc(-c2ccccc2)oc2cc(O)ccc12` were above 186 µM and 85.1 µM. Taken in the same sequence, the figures for `O=C(Oc1ccccc1)C(c1ccccc1)c1ccccc1` were above 102 µM and above 102 µM. With `O=S(=O)(O)c1cc(N=Nc2ccc(O)cc2O)ccc1/C=C/c1ccc(N=Nc2ccc(O)cc2O)cc1S(=O)(=O)O`, the EC50 was above 70.8 µM and the IC50 was determined as 66.1 µM.

With `CC(=O)c1ccccc1NS(=O)(=O)c1ccc2nc(C)n(NS(=O)(=O)c3ccccc3C(C)=O)c(=O)c2c1`, the EC50 is above 200 µM and the IC50 is above 200 µM. In the case of `Cc1ccc2nc(NC(=O)C(=O)C(C#N)c3ccc(Cl)cc3)sc2c1` (stereo not drawn), the EC50 was above 49 µM and the IC50 was above 49 µM. Regarding `CCCCc1c2c(nc3c1CCC/C3=C\c1ccccc1)C(=O)CCC2`, the EC50 is above 5.75 µM and the IC50 was above 5.75 µM. With `COc1cc2c(Cc3cc(OCc4ccccc4)ccc3N)nccc2c(OC)c1OC`, the outcome was inactive. `CCN(CC)c1cc2oc(=O)cc(C)c2cc1NC(=O)c1cc([N+](=O)[O-])cc([N+](=O)[O-])c1`: the EC50 was above 49 µM and the IC50 was above 49 µM. Regarding `OC(CCN1CC2CCC(CC2)C1)(Cc1ccccc1)c1cccs1` (stereo not drawn), the EC50 was above 200 µM and the IC50 was 47.9 µM. For the compound `O=C(O)[C@H]1[C@@H](C2CCCCC2)O[C@@H](C2CCCCC2)O[C@H]1C(F)(F)F`, the EC50 was above 200 µM and the IC50 stood at 191 µM. Taken in the same sequence, the figures for `COc1cc(C(c2cccc3ccccc23)N2C(=O)CCC2C(=O)NCc2ccccc2)cc(OC)c1OC` (stereo not drawn) were above 200 µM and above 200 µM. In the case of `COC1=C(C)C(=O)c2nc(Cl)ccc2C1=O`, the result was inactive. With `c1cc(-c2ncc(-c3ccc4c(c3)CCCO4)o2)ccn1`, the EC50 was above 200 µM and the IC50 was determined as 11.2 µM. Regarding `O=C(OCc1ccccc1)N1CC[C@@H](O)[C@H]1CO`, the EC50 is above 200 µM and the IC50 is above 200 µM. Consider `O=C(O)CCCCCCCCCCCO`, for which the EC50 was above 200 µM and the IC50 is above 200 µM. Turning to `CCOC(CN(C)C(=O)Nc1ccc(Cl)c(Cl)c1)OCC`, the EC50 was above 200 µM and the IC50 stood at 14.8 µM. Turning to `CCc1nnc2c3cc4ccccc4n3cnn12`, the EC50 is above 151 µM and the IC50 is above 151 µM. For the compound `O=C(/C=C/c1ccc(C(F)(F)F)cc1)c1c([O-])on[n+]1-c1ccccc1`, the outcome was inactive. With `NS(=O)(=O)c1nnc(NS(=O)(=O)c2ccc(Cl)cc2)s1`, the EC50 is above 200 µM and the IC50 is above 200 µM. For `CC(C)(C)OC(=O)N/N=C(/N)c1ccccc1`, the EC50 was above 200 µM and the IC50 is above 200 µM. Turning to `O=C(Nc1ccc(Cl)c(Cl)c1)NC(CO)(CO)CO`, the EC50 is above 200 µM and the IC50 turned out to be 110 µM. Taken in the same sequence, the figures for `C=CS(=O)(=O)c1c2cc(OC)ccc2nc2ccc(OC)cc12` were above 20 µM and 2.88 µM. Taken in the same sequence, the figures for `CC1OC(OC2C(Oc3cc(O)c4c(c3)OC(c3ccc(O)cc3)CC4=O)OC(CO)C(O)C2O)C(O)C(O)C1O` (stereo not drawn) were above 200 µM and above 200 µM. On to `CSc1nc(-c2ccccc2)nc(=[N+]2CCOCC2)s1`, for which the EC50 is above 417 µM and the IC50 came to 234 µM.

As for `CC1=CCCC(C)C1(C)CC/C(C)=C/CC/C(=C/CS(=O)(=O)CCN=C(N)N)CO` (stereo not drawn), the EC50 is above 81.3 µM and the IC50 worked out at 15.1 µM. Taken in the same sequence, the figures for `O[C@@]1(C#Cc2ccc3c(c2)OCO3)CCC[C@H]1NCc1ccccc1` were above 200 µM and 36.3 µM. Taken in the same sequence, the figures for `c1ccc(C2=Nc3ccccc3N=C3CCCC32)cc1` (stereo not drawn) were above 200 µM and above 200 µM. With `COC(=O)c1c(-c2ccccc2)cc2c3cc(-c4ccccc4)c(C(=O)OC)n3c3ccccc3n12`, the EC50 is above 28.8 µM and the IC50 is above 28.8 µM.

With `O=C(/C=C/c1cccc(Br)c1)c1ccccc1`, the EC50 was above 13.2 µM and the IC50 is above 13.2 µM. On to `COc1ccc2oc(=S)[nH]c2c1`, for which the EC50 was above 200 µM and the IC50 is above 200 µM. Regarding `CC1(O)Cc2c(O)c3c(c(O)c2CC1O)C(=O)C=CC3=O` (stereo not drawn), the EC50 is above 12.9 µM and the IC50 was determined as 1.32 µM. As for `CNc1ccc(Cl)cc1S(=O)(=O)c1ccc(OC)cc1`, the EC50 was above 200 µM and the IC50 came to 2.14 µM.

`CC1=C(C#N)C(=C(C#N)C#N)OC1(C)Cc1ccccc1` (stereo not drawn): the EC50 was above 200 µM and the IC50 was 112 µM.

`CC1=C(C(=O)Nc2ccccc2)C2(CCCCC2)C(C#N)=C(SCC(=O)Nc2ccc(Br)cc2)N1`: the EC50 is above 200 µM and the IC50 was 12.3 µM. Consider `COc1ccc2nc3c([N+](=O)[O-])ccc4c3c(c2c1)NCCN4CCN(C)C`, for which the EC50 is above 200 µM and the IC50 worked out at 1.05 µM. Taken in the same sequence, the figures for `O=c1oc2ccccc2n1CCCn1c(=O)oc2ccccc21` were above 200 µM and above 200 µM. As for `NCCCNCCSSCCNCCCN`, the EC50 is above 200 µM and the IC50 came out at 10.5 µM. In the case of `O=C1CC2(CCC(O)(c3ccco3)C(C(=O)c3ccco3)C2)C(=O)c2ccccc2N1` (stereo not drawn), the EC50 is above 200 µM and the IC50 was above 200 µM.

Consider `CCOC(=O)c1cnc2sc3ccc4ccccc4c3n2c1=O`, for which the EC50 was above 27.5 µM and the IC50 was above 27.5 µM.

`Cc1cccc(C)c1NC(=O)CCc1nc(=S)[nH][nH]1`: the EC50 is above 468 µM and the IC50 was above 468 µM. In the case of `Cc1c(-c2nnc(-c3ccc(Cl)cc3)o2)c(=O)n(-c2ccccc2)n1C`, the EC50 is above 200 µM and the IC50 is above 200 µM. `C=C1CN(S(=O)(=O)c2ccc(C)cc2)CCCN(CC2CCCCC2)CCCN(S(=O)(=O)c2ccc(C)cc2)C1`: the EC50 is above 46.8 µM and the IC50 amounted to 1.17 µM.

Consider `CC(=O)Oc1ccc(CCC(=O)O[C@H](C(=O)O)[C@H](OC(=O)CCc2ccc(OC(C)=O)c(OC(C)=O)c2)C(=O)O)cc1OC(C)=O`, for which the EC50 is above 53.7 µM and the IC50 is 30.2 µM. Taken in the same sequence, the figures for `CSc1nc(Cl)c2c(n1)Sc1nc3cc4c(cc3n1C2O)OCCO4` (stereo not drawn) were above 0.2 µM and 0.0794 µM. Taken in the same sequence, the figures for `COc1ccccc1NC(=O)C(/C=N/C(=S)NCCNc1ccc(OC)c(OC)c1)=C(\C)O` were above 200 µM and 51.3 µM. For `CCN1CCC(O)(c2ccc(OC)cc2)C(C(=O)c2ccc(OC)cc2)C1` (stereo not drawn), the EC50 was above 550 µM and the IC50 amounted to 14.5 µM. Regarding `CCC/C(Cl)=N\OC(=O)Nc1cccc(C(F)(F)F)c1`, the EC50 is above 200 µM and the IC50 stood at 6.76 µM. For `CC(C)CCCC(C)C1CCC2[C@@H]3CCC4C[C@@H](CCCO)CC[C@]4(C)C3CC[C@]12C` (stereo partly drawn), the EC50 was above 4.37 µM and the IC50 was above 4.37 µM. For the compound `CNC(=S)OCCC(C)CCCC(C)C` (stereo not drawn), the outcome was inactive. With `Cc1nc(-n2nc(-c3ccccc3)cc2-c2ccccc2)sc1C(/C=C/c1ccc([N+](=O)[O-])cc1)=N/NC(=O)c1ccncc1`, the EC50 is above 42.7 µM and the IC50 was 37.2 µM.

Consider `c1ccc2c3csc4ccccc4c-3nc2c1`, for which the outcome was inactive. Consider `CCC1=[N+]([O-])C(C)(C)NC1(C)C`, for which the EC50 was above 200 µM and the IC50 was above 200 µM.

Turning to `COC(=O)C1CCC(=O)N1C(c1cc(OC)c(OC)c(OC)c1)c1cccc2ccccc12` (stereo not drawn), the EC50 is above 200 µM and the IC50 worked out at 83.2 µM. For `COc1ccc(NC/C=C/C(=C/COC(C)=O)OC(C)=O)cc1`, the EC50 is above 200 µM and the IC50 was determined as 3.16 µM. For `CC(=O)Oc1cc2c(cc1OC(C)=O)[C@H]1CC[C@]3(C)[C@@H](OC(C)=O)CC[C@H]3[C@@H]1CC2`, the EC50 was above 200 µM and the IC50 is 10 µM. Take `Clc1c(Cl)c(Cl)c2nn(C3CCCO3)nc2c1Cl` (stereo not drawn): the EC50 is above 200 µM and the half-maximal inhibitory concentration (IC50) is 39.8 µM.
